Measurements published in US20260337189A1, “Cryptolepine Salt Derivative, Preparation Method, and Use Thereof” (ZHEJIANG XINNONG CHEMICAL CO., LTD., priority 2023, published 2026).

Legend:
rice sheath blight = assay: Test of resistance to rice sheath blight (bactericidal activity test); format: in vivo; conditions: for Resistance to rice sheath blight: 400 mg/L, rice seedlings, sprayed 24 h before inoculation, 6 days after inoculation, visual inspection; for bactericidal activity against rice sheath blight: live pot test, Table 5, 400 mg/L
Procedure: Bactericidal activity test, the determination procedure is as follows:
Test of resistance to rice sheath blight: Select uniformly growing rice seedlings and spray them on the leaves at the set concentration, set a water spraying group as blank control, every treatment was repeated twice. After 24 h, the rice seedlings were inoculated with rice sheath blight strains and placed at room temperature (25±4° C.) for normal management after inoculation. The prevention and control effect was investigated by visual inspection 6 days after inoculation.

[1] = tested on: tobacco Mosaic virus (TMV); assay: Anti-tobacco Mosaic virus (TMV) activity, overall comparison of Test Example 1; format: in vivo; conditions: 500 μg/mL; Table 4
Procedure: Determination of anti-tobacco Mosaic virus (TMV) activity by the following procedure:
After weighing, cryptolepine salt derivative, ningnanmycin and the original drug of ribavirin were dissolved in DMF to obtain 1×10^5 μg/mL mother solution, and then diluted to the required concentration with 1%. Tween 80 aqueous solution.
Select the 3-5 leaf stage of tobacco Xanthi nc with uniform growth, spray the whole plant, repeat each treatment 3 times, and set 1%. Tween80 aqueous solution as control. 24 h later, the leaf surface was coated with emery (500 mesh), the disease venom was dipped with a brush, and the whole leaf surface was gently rubbed twice along the direction of the branch pulse by using the brush, the leaf was supported by palm of hand, the virus concentration was 10 μg/mL, and the leaf was washed by water after inoculation. After 3 days, the number of disease spots was recorded and the prevention and control effect was calculated.
Select the 3-5 leaf stage of tobacco Xanthi nc with uniform growth, use a brush to vaccinate the virus in the whole leaf, the virus concentration is 10 μg/mL, and the leaf was washed with running water after inoculation. After the leaves were dried, the whole plant was sprayed with test sample, repeated 3 times every treatment, and 1%. Tween 80 aqueous solution was set as control. After 3 days, the number of disease spots was recorded and the prevention and control effect was calculated.
Select the 3-5 leaf stage of tobacco Xanthi nc with uniform growth, mix the test sample agent with the same volume of virus juice to passivate for 30 min, friction inoculation, virus concentration 20 μg/mL, the leaf was washed with running water after inoculation, repeat 3 times, set 1%. Tween 80 aqueous solution as control. 3 days later, the number of disease spots was calculated.
Relative inhibition rate (%)=[(number of dead spots of control group-number of dead spots of test sample group)/number of dead spots of control group]×100%.
Anti-tobacco Mosaic virus passivation activity test of all compounds was at a treatment dose of 500 μg/mL. The positive control was the commercial anti-plant virus agent viriazole.

Row | Structure (SMILES) | Resistance to rice sheath blight (rice sheath blight) [%] | bactericidal activity against rice sheath blight (rice sheath blight) | TMV activity compared with ribavirin [1] | anti-TMV activity compared with commercial Ningnanmycin [1]
1 | Cc1ccc(S(=O)(=O)n2c3ccccc3c3c2cc2ccccc2[n+]3C)cc1.[Cl-] [Example 1] | 95 ± 5 | more than 95% | – | –
2 | Cc1ccc(S(=O)(=O)n2c3ccc(C)cc3c3c2cc2ccccc2[n+]3C)cc1.[Cl-] [Example 2] | 40 ± 0 | – | – | –
3 | COc1ccc2c(c1)c1c(cc3ccccc3[n+]1C)n2S(=O)(=O)c1ccc(C)cc1.[Cl-] [Example 3] | 35 ± 5 | – | – | –
4 | Cc1ccc(S(=O)(=O)n2c3ccc(Cl)cc3c3c2cc2ccccc2[n+]3C)cc1.[Cl-] [Example 5] | 55 ± 5 | more than 50% | better TMV activity than the ribavirin | comparable to that of commercial Ningnanmycin
5 | Cc1ccc(S(=O)(=O)n2c3ccc(Br)cc3c3c2cc2ccccc2[n+]3C)cc1.[Cl-] [Example 6] | 40 ± 0 | – | better TMV activity than the ribavirin | comparable to that of commercial Ningnanmycin
6 | Cc1ccc(S(=O)(=O)n2c3ccc(C#N)cc3c3c2cc2ccccc2[n+]3C)cc1.[Cl-] [Example 8] | 30 ± 0 | – | – | –
7 | Cc1ccc(S(=O)(=O)n2c3ccccc3c3c2cc2cc(C)ccc2[n+]3C)cc1.[Cl-] [Example 9] | 70 ± 0 | more than 50% | – | –
8 | COc1ccc2c(c1)cc1c(c3ccccc3n1S(=O)(=O)c1ccc(C)cc1)[n+]2C.[Cl-] [Example 10] | 30 ± 0 | – | – | –
9 | Cc1ccc(S(=O)(=O)n2c3ccccc3c3c2cc2cc(F)ccc2[n+]3C)cc1.[Cl-] [Example 11] | 40 ± 0 | – | – | –
10 | Cc1ccc(S(=O)(=O)n2c3ccccc3c3c2cc2cc(Cl)ccc2[n+]3C)cc1.[Cl-] [Example 12] | 40 ± 0 | – | – | –
11 | Cc1ccc(S(=O)(=O)n2c3ccccc3c3c2cc2cc(Br)ccc2[n+]3C)cc1.[Cl-] [Example 13] | 35 ± 5 | – | better TMV activity than the ribavirin | comparable to that of commercial Ningnanmycin
12 | Cc1ccc(S(=O)(=O)n2c3ccccc3c3c2cc2cc(C(F)(F)F)ccc2[n+]3C)cc1.[Cl-] [Example 14] | 60 ± 0 | more than 50% | – | –
13 | COC(=O)c1ccc2c(c1)cc1c(c3ccccc3n1S(=O)(=O)c1ccc(C)cc1)[n+]2C.[Cl-] [Example 15] | 40 ± 0 | – | – | –
14 | Cc1ccc(S(=O)(=O)n2c3ccccc3c3c2cc2ccc(C)cc2[n+]3C)cc1 [Example 16] | 95 ± 5 | more than 95% | – | –
15 | Cc1ccc(S(=O)(=O)n2c3ccccc3c3c2cc2ccc(Cl)cc2[n+]3C)cc1 [Example 17] | 40 ± 0 | – | – | –
16 | Cc1ccc(S(=O)(=O)n2c3ccccc3c3c2cc2ccccc2[n+]3CC2CC2)cc1 [Example 18] | 45 ± 5 | more than 50% | better TMV activity than the ribavirin | –
17 | Cc1ccc(S(=O)(=O)n2c3ccccc3c3c2cc2ccccc2[n+]3CC2CCCCC2)cc1 [Example 19] | 20 ± 0 | – | better TMV activity than the ribavirin | –
18 | Cc1ccc(S(=O)(=O)n2c3ccccc3c3c2cc2ccccc2[n+]3CC(C)(C)C)cc1 [Example 20] | 55 ± 5 | more than 50% | better TMV activity than the ribavirin | comparable to that of commercial Ningnanmycin
19 | Cc1ccc(S(=O)(=O)n2c3ccccc3c3c2cc2ccccc2[n+]3Cc2ccccc2)cc1 [Example 21] | 40 ± 0 | – | better TMV activity than the ribavirin | –
20 | C[n+]1c2ccccc2cc2c1c1ccccc1n2S(=O)(=O)c1ccccc1 [Example 22] | 45 ± 5 | more than 50% | – | –
21 | CCCNc1c2ccccc2[n+](C)c2c1[nH]c1ccccc12 [Example 23] | 30 ± 0 | – | – | –

Row | Structure (SMILES) | Resistance to rice sheath blight (rice sheath blight) [%] | bactericidal activity against rice sheath blight (rice sheath blight) | TMV activity compared with ribavirin [1] | anti-TMV activity compared with commercial Ningnanmycin [1]
22 | CC(C)CCNc1c2ccccc2[n+](C)c2c1[nH]c1ccccc12 [Example 26] | 35 ± 5 | – | better TMV activity than the ribavirin | –
23 | CCCCC(CC)CNc1c2ccccc2[n+](C)c2c1[nH]c1ccccc12 (stereo not drawn) [Example 27] | 30 ± 0 | – | better TMV activity than the ribavirin | comparable to that of commercial Ningnanmycin
24 | C[n+]1c2ccccc2c(NCC2CC2)c2[nH]c3ccccc3c21 [Example 28] | 60 ± 0 | more than 50% | – | –
25 | C[n+]1c2ccccc2c(NCC2CCCCC2)c2[nH]c3ccccc3c21 [Example 30] | 35 ± 5 | – | – | –
26 | C[n+]1c2ccccc2c(NCCCC2CCCCC2)c2[nH]c3ccccc3c21.[I-] [Example 31] | 25 ± 5 | – | – | –
27 | C[n+]1c2ccccc2c(NCCN)c2[nH]c3ccccc3c21.[I-] [Example 32] | 30 ± 0 | – | – | –
28 | C[n+]1c2ccccc2c(NCCCCN)c2[nH]c3ccccc3c21.[I-] [Example 34] | 20 ± 0 | – | better TMV activity than the ribavirin | comparable to that of commercial Ningnanmycin
29 | CC(N)CNc1c2ccccc2[n+](C)c2c1[nH]c1ccccc12.[I-] (stereo not drawn) [Example 35] | 25 ± 5 | – | better TMV activity than the ribavirin | –
30 | C[n+]1c2ccccc2c(NCC(C)(C)N)c2[nH]c3ccccc3c21.[I-] [Example 36] | 35 ± 5 | – | – | –
31 | CCNCCNc1c2ccccc2[n+](C)c2c1[nH]c1ccccc12.[I-] [Example 37] | 40 ± 0 | – | – | –
32 | CNCCCNc1c2ccccc2[n+](C)c2c1[nH]c1ccccc12.[I-] [Example 38] | 30 ± 0 | – | – | –
33 | CN(C)CC(C)(C)CNc1c2ccccc2[n+](C)c2c1[nH]c1ccccc12.[I-] [Example 39] | 25 ± 5 | – | – | –
34 | C[n+]1c2ccccc2c(NC2CCNC2)c2[nH]c3ccccc3c21.[I-] (stereo not drawn) [Example 40] | 20 ± 0 | – | better TMV activity than the ribavirin | –
35 | C[n+]1c2ccccc2c(NC2CCNCC2)c2[nH]c3ccccc3c21.[I-] [Example 41] | 40 ± 0 | – | better TMV activity than the ribavirin | –
36 | C[n+]1c2ccccc2c(NCC2CCCNC2)c2[nH]c3ccccc3c21.[I-] (stereo not drawn) [Example 43] | 30 ± 0 | – | – | –
37 | CN1CCC(Nc2c3ccccc3[n+](C)c3c2[nH]c2ccccc23)CC1.[I-] [Example 44] | 55 ± 5 | more than 50% | – | –
38 | CN1CCC(CNc2c3ccccc3[n+](C)c3c2[nH]c2ccccc23)CC1.[I-] [Example 45] | 30 ± 0 | – | – | –
39 | CN1CCCC(CNc2c3ccccc3[n+](C)c3c2[nH]c2ccccc23)C1 (stereo not drawn) [Example 46] | 30 ± 0 | – | better TMV activity than the ribavirin | –
40 | C[n+]1c2ccccc2cc2[nH]c3ccc(Br)cc3c21 [Reference Example 1, 5-methyl-7-bromo 5H-indolo[3,2-b]quinoline, reference compound] | 0 | – | – | –
41 | C[n+]1c2ccccc2c(N2CCN(CCN)CC2)c2[nH]c3ccc(Cl)cc3c21.[I-] [Reference Example 2, 11-(4′-(2-aminoethyl)-piperazinyl) substituted cryptolepine iodide salt, reference compound] | 0 | – | – | –
42 | Cc1nc(C(F)(F)F)c(C(=O)Nc2c(Br)cc(OC(F)(F)F)cc2Br)s1 [Thifluzamide, thifluzamide, reference compound] | 100 | – | – | –
